From patent US11564990B2, “Multi-drug-loading-site, high drug-loading capacity ligand-drug conjugate” (JenKem Technology Co., Ltd. (Beijing), priority 2017, dated 2023) come the findings set out here.

Series [1] can be described thus: Determination of drug antibody coupling ratio (DAR) by UV/Vis method. In kind it is physicochemical. To be noted: two-step coupling products, UV-Vis; moles of drug divided by moles of antibody. The source says:
In formula (1), the sum of the absorbances of the drug and the antibody at 280 nm constitutes the total absorbance (A280): A280=(εdrug^280Cdrug+εmAb^280CmAb)l (1)
wherein εdrug^280 is the extinction coefficient of the drug at 280 nm; Cdrug is the drug concentration (mg/mL); […] the extinction coefficient of the antibody at 280 nm; CmAb is the concentration of the antibody.
Equation (2) is the parallel equation for the total absorbance of the drug at the maximum absorption λ(D): Aλ(D)=(εdrug^λ(D)Cdrug+εmAb^λ(D)CmAb)l (2)
wherein εdrug^λ(D) is the extinction coefficient of the drug at λ(D)nm; Cdrug is the drug concentration (mg/mL); εmAb^λ(D) is the extinction coefficient of the antibody at λ(D)nm; CmAb is the concentration of the antibody (mg/mL).
The concentration of antibody and drug can be calculated separately by two equations (1) and (2). CmAb=(A280εdrug^λ(D)−Aλ(D)εdrug^280)/[(εmAb^280εdrug^λ(D)−εmAb^λ(D)εdrug^280)l] (3) Cdrug=(A280εmAb^λ(D)−Aλ(D)εmAb^280)/[(εdrug^280εmAb^λ(D)−εdrug^λ(D)εmAb^280)l] (4)
The average drug antibody coupling ratio (DAR) calculated by dividing
[formula] is expressed as the number of moles of drug divided by the number of moles of antibody: […]

Series [2] concerns colorectal cancer model (HCT-116). In words: Efficacy test in colorectal cancer model in which HER2 was not expressed. It counts as in vivo, nude mice. To be noted: HCT-116 model. The procedure:
Experimental method: Evaluation of the efficacy of the sample was performed using a colorectal cancer model in which HER2 was not expressed. The cell line at logarithmic growth phase was inoculated subcutaneously into the right side of the immunodeficient mice, and the cell inoculation amount was 5×10^6 cells/mouse. After the transplanted tumor was formed, allow it grow in the mice for 2 passage before use. The tumor tissue with strong growth period was cut into tumor pieces with a diameter of about 2 mm, and inoculated subcutaneously into the right torso of nude mice under sterile conditions. The formed tumor tissue is measured by a vernier caliper, and the long and short diameters are represented by a and b, respectively, and the tumor volume (TV) is calculated as: TV=½×a×b^2. Animals were randomized after tumor growth to 100-150 mm^3. Both models were divided into vehicle group, control group (recombinant anti-HER2 humanized monoclonal antibody Ab, 30 mg/kg) and test group I (administered with APEGA-8, 9, 10, respectively (prepared in Example 6-8), the dose was 30 mg/kg in terms of Ab, and the test group II (PEG-Irinotecan (prepared in Example 5), the dose was 30 mg/kg). Both the test article and the control drug were administered once a week vial the tail vein for a total of three administrations. The diameter of the transplanted tumor was measured twice a week during the entire experiment, and the body weight of the mice was weighed. After the end of the administration, continue to observe the animals for a week, and then they were sacrificed.

Series [3] is described as follows: Antibody pharmacokinetic assay in rats (total antibody in plasma by HER2 ELISA). To be noted: SD rats, intravenous 30 mg/kg, compared with control Ab. On the technique in general: ELISA stands for enzyme-linked immunosorbent assay.

Molecules are shown by their SMILES.

Consider `CCc1c2c(nc3ccc(OC(=O)N4CCC(N5CCCCC5)CC4)cc13)-c1cc3c(c(=O)n1C2)COC(=O)[C@]3(C)CC` [APEGA-8], for which, in series [1], the “DAR (average drug antibody coupling ratio)” value was 22.2. The “antitumor activities in relation to drug loading” value in series [2] (30 mg/kg in terms of Ab, QW×3) was “increased with the drug loading”. Further, in series [2] (irinotecan dose 2.6, 4.2, 11.2 mg/kg respectively), the “efficacy compared with group II (PEG-Irinotecan 30 mg/kg)” value is listed as “still better than group II”. Further, the “Tumor inhibition rate (%)” value in series [2] (third week of administration, 30 mg/kg QW×3 via tail vein) is given as 40.1%. The “elimination rate in rat plasma (total antibody)” value in series [3] is reported as “increased to a certain extent compared with the control Ab, but the decline trend was not significant”.
